Laboratory results as given in patent publication US20230159527A1, “COMPOUNDS AS BCL-2 INHIBITORS” (Fochon Pharmaceuticals, Ltd., priority 2020, published 2023).
Where two headings read alike, the source gives them in different places.

Key:
[1] = test system: DoHH2 cells; assay: Cell proliferation assay, DoHH2 cells (MTS, 120 h); format: cell-based; conditions: Homo sapiens, DOHH-2
Experimental: MTS testing kit was purchased from Promega (Madison, Wis., USA). The RPMI-1640, Fetal bovine serum and Penicillin-Streptomycin were purchased from BI (Biological Industries, Beit Haemek, Israel). Dimethyl sulfoxide (DMSO) was purchased from Sigma (St. Louis, Mo., USA). DoHH2 (DSMZ catalog #: ACC47) cells were cultured in RPMI-1640 supplemented with Penicillin-Streptomycin and 10% FBS.
To investigate whether a compound is able to inhibit the activity of BCL-2 in cells, a mechanism-based assay using DoHH2 lines was developed. In this assay, the inhibition of BCL-2 was reflected by the inhibition of cell proliferation of DoHH2 cells. Cells were plated into 96-well plates at the optimized cell density of 5000 cells/well. Plates were incubated at 37° C., with 5% CO2 for 4h. Compounds were serially diluted and added to the plates with the final concentrations of 10000, 3333.3, 1111.1, 370.4, 123.5, 41.2, 13.7, 4.6 and 1.5 nM. Plates were incubated at 37° C., with 5% CO2 for 120 h. 20 μl MTS was added into each well and the plates were incubated at 37° C., with 5% CO2 for exactly 2 h. The absorbance was measured by a microplate reader at 490 nm. IC50 was calculated using GraphPad Prism 5.0 software.

[2] = test system: Toledo cells; assay: Cell proliferation assay, Toledo cells (MTS, 72 h); format: cell-based; conditions: Toledo cells, MTS, read-out: Toledo IC50
Summary of the method: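 IC50 was derived from 490 nm absorbance after a 2 h MTS step. Before that, compounds at 1.5–10000 nM final (nine points) acted on Toledo cells for 72 h at 37 °C, 5% CO2. Cells were seeded at 30000/well in 10% FBS RPMI-1640 and rested 4 h before dosing.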

| Compound | IC50 [1] [nM] | IC50 ([2]; Homo sapiens) [nM] | further results |
| --- | --- | --- | --- |
| CC(C)c1ccccc1[C@@H]1CCCN1C1CC2(CCN(c3ccc(C(=O)NS(=O)(=O)c4cc([N+](=O)[O-])c5c(n4)OC[C@H]([C@H]4CC[C@@](C)(O)CC4)N5)c(Oc4cnc5[nH]ccc5c4)c3)CC2)C1 (single isomer, unassigned) [Example B-35, 2-((1H-pyrrolo[2,3-b]pyridin-5-yl)oxy)-N-(((S)-2-((1s,4R)-4-hydroxy-4-methylcyclohexyl)-8-nitro-2,3-dihydro-1H-pyrido[2,3-b] [1,4]oxazin-6-yl)sulfonyl)-4-(2-((R or S)-2-(2-isopropylphenyl)pyrrolidin-1-yl)-7-azaspiro[3.5]nonan-7-yl)benzamide] | ≤ 1 | – | – |
| CC(C)c1ccccc1C1CCCN1C1CC2(CCN(c3ccc(C(=O)NS(=O)(=O)c4cc([N+](=O)[O-])c5c(n4)OC[C@@H](Cc4ccccc4)N5)c(Oc4cnc5[nH]ccc5c4)c3)CC2)C1 (single isomer, unassigned) [Example B-36, 2-((1H-pyrrolo[2,3-b]pyridin-5-yl)oxy)-N-(((R)-2-benzyl-8-nitro-2,3-dihydro-1H-pyrido[2,3-b] [1,4]oxazin-6-yl)sulfonyl)-4-(2-((R or S)-2-(2-isopropylphenyl)pyrrolidin-1-yl)-7-azaspiro[3.5]nonan-7-yl)benzamide] | ≤ 1 | – | – |
| CC(C)c1ccccc1C1CCCN1C1CC2(CCN(c3ccc(C(=O)NS(=O)(=O)c4cc([N+](=O)[O-])c5c(n4)OC[C@H](CC4CCOCC4)N5)c(Oc4cnc5[nH]ccc5c4)c3)CC2)C1 (single isomer, unassigned) [Example B-40, 2-((1H-pyrrolo[2,3-b]pyridin-5-yl)oxy)-4-(2-((R or S)-2-(2-isopropylphenyl)pyrrolidin-1-yl)-7-azaspiro[3.5]nonan-7-yl)-N-(((S)-8-nitro-2-((tetrahydro-2H-pyran-4-yl)methyl)-2,3-dihydro-1H-pyrido[2,3-b][1,4]oxazin-6-yl)sulfonyl)benzamide] | ≤ 1 | – | – |
| O=C(NS(=O)(=O)c1cc([N+](=O)[O-])c2c(n1)OC[C@H](COC1CCOCC1)N2)c1ccc(N2CCC3(CC2)CC(N2CCCC2c2ccccc2C2CC2)C3)cc1Oc1cnc2[nH]ccc2c1 (single isomer, unassigned) [Example B-46, 2-((1H-pyrrolo[2,3-b]pyridin-5-yl)oxy)-4-(2-((R or S)-2-(2-cyclopropylphenyl)pyrrolidin-1-yl)-7-azaspiro[3.5]nonan-7-yl)-N-(((S)-8-nitro-2-(((tetrahydro-2H-pyran-4-yl)oxy)methyl)-2,3-dihydro-1H-pyrido[2,3-b] [1,4]oxazin-6-yl)sulfonyl)benzamide] | ≤ 1 | – | – |
| CC(C)c1ccccc1[C@@H]1COCCN1C1CC2(CCN(c3ccc(C(=O)NS(=O)(=O)c4cc([N+](=O)[O-])c5c(n4)OC[C@H]([C@H]4CC[C@@](C)(O)CC4)N5)c(Oc4cnc5[nH]ccc5c4)c3)CC2)C1 (single isomer, unassigned) [Example B-48, 2-((1H-pyrrolo[2,3-b]pyridin-5-yl)oxy)-N-(((S)-2-((1s,4R)-4-hydroxy-4-methylcyclohexyl)-8-nitro-2,3-dihydro-1H-pyrido[2,3-b] [1,4]oxazin-6-yl)sulfonyl)-4-(2-((R or S)-3-(2-isopropylphenyl)morpholino)-7-azaspiro[3.5]nonan-7-yl) benzamide] | ≤ 1 | – | – |
| CC(C)c1ccccc1C1=CCCC1N1CC2(CCN(c3ccc(C(=O)NS(=O)(=O)c4cc5c(c([N+](=O)[O-])c4)N[C@@H]([C@H]4CC[C@](C)(O)CC4)CO5)c(Oc4cnc5[nH]cc(F)c5c4)c3)CC2)C1 (stereo partly drawn) [Example D-77, 2-((3-fluoro-1H-pyrrolo[2,3-b]pyridin-5-yl)oxy)-N-(((S)-3-((1r,4S)-4-hydroxy-4-methylcyclohexyl)-5-nitro-3,4-dihydro-2H-benzo[b] [1,4]oxazin-7-yl)sulfonyl)-4-(2-(2-(2-isopropylphenyl)cyclopent-2-en-1-yl)-2,7-diazaspiro[3.5]nonan-7-yl)benzamide] | – | 1 | – |
| CC(C)c1ccccc1C1(O)CCCC1N1CC2(CCN(c3ccc(C(=O)NS(=O)(=O)c4cc5c(c([N+](=O)[O-])c4)N[C@@H]([C@H]4CC[C@](C)(O)CC4)CO5)c(Oc4cnc5[nH]cc(F)c5c4)c3)CC2)C1 (stereo partly drawn) [Example D-247, 2-((3-fluoro-1H-pyrrolo[2,3-b]pyridin-5-yl)oxy)-4-(2-(2-hydroxy-2-(2-isopropylphenyl)cyclopentyl)-2,7-diazaspiro[3.5]nonan-7-yl)-N-(((S)-3-((1r,4S)-4-hydroxy-4-methylcyclohexyl)-5-nitro-3,4-dihydro-2H-benzo[b][1,4]oxazin-7-yl)sulfonyl)benzamide] | – | 1 | – |
| CC(C)c1ccccc1[C@@H]1CC[C@@H](CO)N1C1CC2(CCN(c3ccc(C(=O)NS(=O)(=O)c4cc5c(c([N+](=O)[O-])c4)N[C@@H]([C@H]4CC[C@](C)(O)CC4)CO5)c(Oc4cnc5[nH]cc(F)c5c4)c3)CC2)C1 [Example D-253, 2-((3-fluoro-1H-pyrrolo[2,3-b]pyridin-5-yl)oxy)-N-(((S)-3-((1r,4S)-4-hydroxy-4-methylcyclohexyl)-5-nitro-3,4-dihydro-2H-benzo[b] [1,4]oxazin-7-yl)sulfonyl)-4-(2-((2S,5S)-2-(hydroxymethyl)-5-(2-isopropylphenyl)pyrrolidin-1-yl)-7-azaspiro[3.5]nonan-7-yl)benzamide] | – | 1 | – |
| CC(C)c1ccccc1[C@@H]1CC[C@H](CO)N1C1CC2(CCN(c3ccc(C(=O)NS(=O)(=O)c4cc5c(c([N+](=O)[O-])c4)N[C@@H]([C@H]4CC[C@](C)(O)CC4)CO5)c(Oc4cnc5[nH]cc(F)c5c4)c3)CC2)C1 [Example D-254, 2-((3-fluoro-1H-pyrrolo[2,3-b]pyridin-5-yl)oxy)-N-(((S)-3-((1r,4S)-4-hydroxy-4-methylcyclohexyl)-5-nitro-3,4-dihydro-2H-benzo[b] [1,4]oxazin-7-yl)sulfonyl)-4-(2-((2R,5S)-2-(hydroxymethyl)-5-(2-isopropylphenyl)pyrrolidin-1-yl)-7-azaspiro[3.5]nonan-7-yl)benzamide] | – | 1 | – |
| CC(C)c1ccccc1[C@@H]1CCC(=O)N1C1CC2(CCN(c3ccc(C(=O)NS(=O)(=O)c4cc5c(c([N+](=O)[O-])c4)N[C@@H]([C@H]4CC[C@](C)(O)CC4)CO5)c(Oc4cnc5[nH]cc(F)c5c4)c3)CC2)C1 [Example D-257, 2-((3-fluoro-1H-pyrrolo[2,3-b]pyridin-5-yl)oxy)-N-(((S)-3-((1r,4S)-4-hydroxy-4-methylcyclohexyl)-5-nitro-3,4-dihydro-2H-benzo[b] [1,4]oxazin-7-yl)sulfonyl)-4-(2-((S)-2-(2-isopropylphenyl)-5-oxopyrrolidin-1-yl)-7-azaspiro[3.5]nonan-7-yl)benzamide] | – | 1 | – |
| N-(((S)-3-((1r,4S)-4-hydroxy-4- methylcyclohexyl)-5-nitro-3,4- dihydro-2H-benzo[b][1,4]oxazin-7- yl)sulfonyl)-4-(2-((R or S)- 2-(2-isopropylphenyl)pyrrolidin- 1-yl)-7-azaspiro[3.5]nonan-7- yl)-2-((6-(((R)-tetrahydrofuran-3- yl)oxy)-1H-pyrrolo[2,3-b]pyridin- 5-yl)oxy)benzamide [Example D-73] | – | – | IC50 [2]: 1 nM |
